From patent publication EP4014973B1, “INHALED LIQUID FOR THE TREATMENT OF RESPIRATORY INFECTIONS IN HUMANS CAUSED BY PATHOGENS RESISTANT TO ANTIBIOTICS” (Conick Biotech LLC, priority 2020, dated 2022)
Like-named read-outs stand apart in the source and are kept apart here.

Assays:
Histoplasma capsulatum = format: cell-based; details: Müller-Hinton-Agar, amount used: novel compound 0.05 mL, Cephalosporin 0.1 mL, Ampicillin 0.2 mL
Cryptococcus = experiment: In vitro comparative zone diameter test on Müller-Hinton-Agar; format: cell-based; details: amount used: novel compound 0.05 mL, Cephalosporin 0.1 mL, Ampicillin 0.2 mL
Campylobacter = experiment: as above; format: cell-based; details: amount used: novel compound 0.05 mL, Cephalosporin 0.1 mL, Ampicillin 0.2 mL
Microsporidia = experiment: as above; format: cell-based; details: amount used: novel compound 0.05 mL, Cephalosporin 0.1 mL, Ampicillin 0.2 mL
Pasteurella = experiment: as above; format: cell-based; details: amount used: novel compound 0.05 mL, Cephalosporin 0.1 mL, Ampicillin 0.2 mL
Candida = experiment: as above; format: cell-based; details: amount used: novel compound 0.05 mL, Cephalosporin 0.1 mL, Ampicillin 0.2 mL
Micrococcus = experiment: as above; format: cell-based; details: amount used: novel compound 0.05 mL, Cephalosporin 0.1 mL, Ampicillin 0.2 mL
mice [1] = details: p.o., 2,000 µL / kg
humans = experiment: Clinical pilot study of side effects after inhalation; details: 80 humans
rats [2] = details: p.o., 2,250 µL / kg
rats [3] = tested on: rats
mice [4] = tested on: mice
[5] = inhalation, 10ml 2% / 30 kg every 8 hours for seven (7) days
[6] = inhalatory application, 2,500 µL / kg
[7] = inhalatory application, after 14 days
[8] = inhalatory application, 2,250 µL / kg

CC1(C)S[C@@H]2[C@H](NC(=O)[C@H](N)c3ccccc3)C(=O)N2[C@H]1C(=O)O [Ampicilin, Ampicillin]
R (evaluation of the results by zone diameter) (Histoplasma capsulatum): R (0mm - 4mm: resistant: R)
zone diameter (Histoplasma capsulatum): 2 mm
R (evaluation of the results by zone diameter) (Cryptococcus): R (0mm - 4mm: resistant: R)
zone diameter (Cryptococcus): 0 mm
R (evaluation of the results by zone diameter) (Campylobacter): MS (5 - 9 mm: moderately sensitive: MS)
zone diameter (Campylobacter): 7 mm
R (evaluation of the results by zone diameter) (Microsporidia): R (0mm - 4mm: resistant: R)
zone diameter (Microsporidia): 3 mm
R (evaluation of the results by zone diameter) (Pasteurella): MS (5 - 9 mm: moderately sensitive: MS)
zone diameter (Pasteurella): 5 mm
R (evaluation of the results by zone diameter) (Candida): R (0mm - 4mm: resistant: R)
zone diameter (Candida): 4 mm
R (evaluation of the results by zone diameter) (Micrococcus): R (0mm - 4mm: resistant: R)
zone diameter (Micrococcus): 0 mm

C=CCc1ccc(O)c(OC)c1.CCN(CC)CC(=O)Nc1c(C)cccc1C [Novel Compound, N-[N'-(carboxymethylenyl-2,6-dimethyl-aniline)-N,N-diethylammonium]-[2'-methoxy-4'-(2'-propenyl)]-phenolate.]
R (evaluation of the results by zone diameter) (Cryptococcus): ES (21 mm and more: extremely sensitive: ES)
zone diameter (Cryptococcus): 31 mm
R (evaluation of the results by zone diameter) (Campylobacter): ES (21 mm and more: extremely sensitive: ES)
zone diameter (Campylobacter): 32 mm
R (evaluation of the results by zone diameter) (Microsporidia): ES (21 mm and more: extremely sensitive: ES)
zone diameter (Microsporidia): 30 mm
R (evaluation of the results by zone diameter) (Pasteurella): ES (21 mm and more: extremely sensitive: ES)
zone diameter (Pasteurella): 36 mm
R (evaluation of the results by zone diameter) (Candida): ES (21 mm and more: extremely sensitive: ES)
zone diameter (Candida): 33 mm
Breading and cardiac functions (mice [1]): regular
time after which discomfort symptoms disappeared (mice [1]): 1 to 3 min
mice that changed their behavior and demonstrated light discomfort (running, anxiety) (mice [1]; out of hundred (100)): 23
C Reactive Protein (CRP) measurements (humans; blood samples before the test, on the 4th and 8th day): no inflammation was developed
pulse frequency and blood pressure (humans; during the inhalation, 10ml 2% / 30 kg every 8 hours for seven (7) days): not significantly altered
Electrocardiography measurements (humans; during the intake, 10ml 2% / 30 kg every 8 hours for seven (7) days): regular without any pathological and irregular oscillations
coughing (humans; in the very beginning of the test): Sporadic coughing was recorded in some participants
bronchospasms (humans; [5]): No bronchospasms were recorded
dyspnea (humans; [5]): No dyspnea was recorded
respiratory function (humans; [5]): not disturbed
Breading and cardiac functions (rats [2]): regular
time after which discomfort symptoms disappeared (rats [2]): 1 to 3 min
rats that changed their behavior and demonstrated light discomfort (running, anxiety) (rats [2]; out of hundred (100)): 37
R (evaluation of the results by zone diameter) (Micrococcus): ES (21 mm and more: extremely sensitive: ES)
zone diameter (Micrococcus): 38 mm
Breading and cardiac functions (rats [3]; [6]): regular
time after which discomfort symptoms disappeared (rats [3]; [6]): 5 to 6 min
rats that changed their behavior and demonstrated discomfort (running, anxiety) (rats [3]; inhalatory application, 2,500 µL / kg, out of hundred (100)): 29
reexamination of the animals (rats [3]; [7]): no new irregularities were found
Breading and cardiac functions (mice [4]; [8]): regular
time after which discomfort symptoms disappeared (mice [4]; [8]): 3 to 5 min
mice that changed their behavior and demonstrated discomfort (running, anxiety) (mice [4]; inhalatory application, 2,250 µL / kg, out of hundred (100)): 21
reexamination of the animals (mice [4]; [7]): no new irregularities were found
